This is an account of results in patent publication US9586945B2, “Aminochromane, aminothiochromane and amino-1,2,3,4-tetrahydroquinoline derivatives, pharmaceutical compositions containing them, and their use in therapy” (AbbVie Deutschland GmbH & Co. KG, priority 2013, dated 2017).

In one series the target is human GlyT1c transporter (Homo sapiens (Human), UniProt P48067). In words: Radioligand binding assay using recombinant CHO cell membranes expressing human GlyT1. As to conditions: examples marked * tested as fumarate salts, read-out: radioligand binding Kiapp.
The nature of series [1]: Metabolic stability in human liver microsomes. Type of series: in vitro ADME. As to conditions: 0.5 μM test substance, NADPH, 37° C., scaled microsomal clearance, examples marked * tested as fumarate salts. On the procedure: Metabolic stability was determined as follows:
0.5 μM test substance was preincubated together with human liver microsomes (0.25 mg of microsomal protein/[…]) in 0.05 M potassium phosphate buffer of pH 7.4 in microtiter plates at 37° C. for 5 min. The reaction was started by adding NADPH (1.0 mM). After 0, 5, 10, 15, 20 and 30 min the reaction was stopped and cooled with twice the amount of quench solution consisting of acetonitrile/methanol 1:1, and containing 0.2 μM carbutamide. The samples were frozen until analyzed. The remaining concentration of undegraded test substance was determined by LC MSMS. The half-life (T1/2) was determined from the gradient of the signal of test substance/unit time plot, al-lowing to calculate the half-life of the test substance, assuming first order kinetics, from the de-crease in the concentration of the compound with time. The microsomal clearance (mClint) was calculated as follows: mClint=((ln(2)/t1/2)/Microsomal Protein Concentration (mg/ml))*1000, leading to the unit of uL/min/mg. The scaled clearance (mClin_scaled) was calculated as mCLint_scaled=m CLint*(Microsomal Yield (mg/kg BW))/1000000*60, leading to the units L/hr/kg. The Microsomal Yield is defined by the specifics of the used microsomes. Calculations were modified from references: Di, The Society for Biomolecular Screening, 2003, 453-462; Obach, DMD, 1999 vol 27. N 11, 1350-1359.
A general note: Microsomes from liver hold many membrane-bound enzymes, among them those of drug oxidation.

Where only a bound is given, the exact number is not on record here.

Chain of human GlyT1c transporter (P48067 whole entry): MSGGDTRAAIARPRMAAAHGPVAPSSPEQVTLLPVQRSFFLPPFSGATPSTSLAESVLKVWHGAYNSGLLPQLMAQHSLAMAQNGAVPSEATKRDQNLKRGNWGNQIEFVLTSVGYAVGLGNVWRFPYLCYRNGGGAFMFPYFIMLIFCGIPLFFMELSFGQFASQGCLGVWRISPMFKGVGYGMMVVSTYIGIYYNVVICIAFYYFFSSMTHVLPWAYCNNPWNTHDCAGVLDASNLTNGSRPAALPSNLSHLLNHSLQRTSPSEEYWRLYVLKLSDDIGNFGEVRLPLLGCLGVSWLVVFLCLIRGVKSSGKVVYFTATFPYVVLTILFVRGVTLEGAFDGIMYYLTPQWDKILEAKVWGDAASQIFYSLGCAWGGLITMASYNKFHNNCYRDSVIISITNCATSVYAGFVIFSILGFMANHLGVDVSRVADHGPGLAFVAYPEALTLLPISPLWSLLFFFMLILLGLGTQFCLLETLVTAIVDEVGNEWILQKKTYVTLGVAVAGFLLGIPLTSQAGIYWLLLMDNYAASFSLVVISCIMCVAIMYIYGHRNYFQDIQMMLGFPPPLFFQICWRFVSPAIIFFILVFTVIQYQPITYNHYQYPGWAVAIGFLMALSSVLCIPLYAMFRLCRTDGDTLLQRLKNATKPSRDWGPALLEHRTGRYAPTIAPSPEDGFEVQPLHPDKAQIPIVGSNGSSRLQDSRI

As to `CCCS(=O)(=O)NC1CN(c2ccc3c(c2)[C@H](Cc2ccccc2)[C@H](N)CO3)C1` (relative stereo) [Example 20, Cis-N-(1-(3-amino-4-benzylchroman-6-yl)azetidin-3-yl)propane-1-sulfonamide], the Ki at human GlyT1c transporter is at most 100 nM.

As for `CN[C@H]1COc2cc(F)c(N3CC(NS(=O)(=O)CC4CC4)C3)cc2[C@H]1Cc1ccccc1` (relative stereo) [Example 19a, Cis-N-(1-(4-benzyl-7-fluoro-3-(methylamino)chroman-6-yl)azetidin-3-yl)-1-cyclopropylmethanesulfonamide], the “human mCl” value in series [1] is “≦50 L/h/Kg”.

As to `CCS(=O)(=O)NC1CN(c2cc3c(cc2F)OCC(NC)C3Cc2ccccc2)C1` (single isomer, unassigned) [Example 14a, Cis-N-(1-(4-benzyl-7-fluoro-3-(methylamino)chroman-6-yl)azetidin-3-yl)ethanesulfonamide], the Ki at human GlyT1c transporter is at most 100 nM.

With `CN[C@H]1COc2cc(F)c(N3CC(NS(=O)(=O)c4cn(C)nn4)C3)cc2[C@@H]1Cc1ccccc1` (relative stereo) [Example 18b, trans-N-(1-(4-benzyl-7-fluoro-3-(methylamino)chroman-6-yl)azetidin-3-yl)-1-methyl-1H-1,2,3-triazole-4-sulfonamide], the “human mCl” value in series [1] is “≦5 L/h/Kg”.

As to `CN[C@H]1COc2cc(F)c(N3CC(NS(=O)(=O)c4cnn(C)c4)C3)cc2[C@@H]1Cc1ccccc1` (relative stereo) [Example 17b, trans-N-(1-(4-benzyl-7-fluoro-3-(methylamino)chroman-6-yl)azetidin-3-yl)-1-methyl-1H-pyrazole-4-sulfonamide], the “human mCl” value in series [1] is listed as “≦5 L/h/Kg”.

As to `CCCS(=O)(=O)NC1CN(c2cc3c(cc2F)OC[C@H](NC)[C@@H]3Cc2ccccc2)C1` (relative stereo) [Example 16a, Cis-N-(1-(4-benzyl-7-fluoro-3-(methylamino)chroman-6-yl)azetidin-3-yl)propane-1-sulfonamide], the “human mCl” value in series [1] is on record as “≦5 L/h/Kg”.

Consider `CCS(=O)(=O)NC1CN(c2cc3c(cc2F)OC[C@H](NC)[C@@H]3Cc2ccccc2)C1` (relative stereo) [Example 14a, Cis-N-(1-(4-benzyl-7-fluoro-3-(methylamino)chroman-6-yl)azetidin-3-yl)ethanesulfonamide], for which, in series [1], the “human mCl” value was “≦5 L/h/Kg”.

As to `CNC1COc2cc(F)c(N3CC(NS(=O)(=O)c4cnn(C)c4)C3)cc2C1Cc1ccccc1` (single isomer, unassigned) [Example 17a, Cis-N-(1-(4-benzyl-7-fluoro-3-(methylamino)chroman-6-yl)azetidin-3-yl)-1-methyl-1H-pyrazole-4-sulfonamide], the Ki on human GlyT1c transporter is at most 10 nM.

Take `CN[C@H]1COc2cc(F)c(N3CC(NS(=O)(=O)c4cn(C)nn4)C3)cc2[C@H]1Cc1ccccc1` (relative stereo) [Example 18a, Cis-N-(1-(4-benzyl-7-fluoro-3-(methylamino)chroman-6-yl)azetidin-3-yl)-1-methyl-1H-1,2,3-triazole-4-sulfonamide]: in series [1], the “human mCl” value is listed as “≦50 L/h/Kg”.

Turning to `CCCS(=O)(=O)NC1CN(c2cc3c(cc2F)OCC(NC)C3Cc2ccccc2)C1` (single isomer, unassigned) [Example 16a, Cis-N-(1-(4-benzyl-7-fluoro-3-(methylamino)chroman-6-yl)azetidin-3-yl)propane-1-sulfonamide], at human GlyT1c transporter, the Ki is at most 10 nM.

As for `CNC1COc2cc(F)c(N3CC(NS(=O)(=O)c4cnn(C)c4)C3)cc2C1Cc1ccccc1` (single isomer, unassigned) [Example 17b, trans-N-(1-(4-benzyl-7-fluoro-3-(methylamino)chroman-6-yl)azetidin-3-yl)-1-methyl-1H-pyrazole-4-sulfonamide], the Ki on human GlyT1c transporter was at most 10 nM.

For the compound `CNC1COc2cc(F)c(N3CC(NS(=O)(=O)c4cn(C)cn4)C3)cc2C1Cc1ccccc1` (single isomer, unassigned) [Example 15a, Cis-N-(1-(4-benzyl-7-fluoro-3-(methylamino)chroman-6-yl)azetidin-3-yl)-1-methyl-1H-imidazole-4-sulfonamide], the Ki on human GlyT1c transporter was at most 10 nM.

For the compound `CNC1COc2cc(F)c(N3CC(NS(=O)(=O)c4cn(C)nn4)C3)cc2C1Cc1ccccc1` (single isomer, unassigned) [Example 18b, trans-N-(1-(4-benzyl-7-fluoro-3-(methylamino)chroman-6-yl)azetidin-3-yl)-1-methyl-1H-1,2,3-triazole-4-sulfonamide], the Ki on human GlyT1c transporter was at most 10 nM.

`CCn1cc(S(=O)(=O)NC2CN(c3cc4c(cc3F)OC[C@@H](N3CCC3)[C@H]4Cc3ccccc3)C2)nn1` (relative stereo) [Example 7, Cis-N-(1-(3-(azetidin-1-yl)-4-benzyl-7-fluorochroman-6-yl)azetidin-3-yl)-1-ethyl-1H-1,2,3-triazole-4-sulfonamide]: on human GlyT1c transporter, the Ki is at most 100 nM.

Regarding `CCS(=O)(=O)NC1CN(c2cc3c(cc2F)OC[C@H](NC)[C@H]3Cc2ccccc2)C1` (relative stereo) [Example 14b, trans-N-(1-(4-benzyl-7-fluoro-3-(methylamino)chroman-6-yl)azetidin-3-yl)ethanesulfonamide], the “human mCl” value in series [1] was “≦5 L/h/Kg”.

Consider `CCCS(=O)(=O)NC1CN(c2cc3c(cc2F)OC[C@H](NC)[C@H]3Cc2ccccc2)C1` (relative stereo) [Example 16b, trans-N-(1-(4-benzyl-7-fluoro-3-(methylamino)chroman-6-yl)azetidin-3-yl)propane-1-sulfonamide], for which the “human mCl” value in series [1] was “≦5 L/h/Kg”.

Take `CNC1COc2cc(F)c(N3CC(NS(=O)(=O)c4cn(C)cn4)C3)cc2C1Cc1ccccc1` (single isomer, unassigned) [Example 15b, trans-N-(1-(4-benzyl-7-fluoro-3-(methylamino)chroman-6-yl)azetidin-3-yl)-1-methyl-1H-imidazole-4-sulfonamide]: the Ki on human GlyT1c transporter is at most 10 nM.

Consider `CN[C@H]1COc2cc(F)c(N3CC(NS(=O)(=O)c4cnn(C)c4)C3)cc2[C@H]1Cc1ccccc1` (relative stereo) [Example 17a, Cis-N-(1-(4-benzyl-7-fluoro-3-(methylamino)chroman-6-yl)azetidin-3-yl)-1-methyl-1H-pyrazole-4-sulfonamide], for which, in series [1], the “human mCl” value was “≦5 L/h/Kg”.

Consider `CNC1COc2cc(F)c(N3CC(NS(=O)(=O)CC4CC4)C3)cc2C1Cc1ccccc1` (single isomer, unassigned) [Example 19b, trans-N-(1-(4-benzyl-7-fluoro-3-(methylamino)chroman-6-yl)azetidin-3-yl)-1-cyclopropylmethanesulfonamide], for which the Ki at human GlyT1c transporter was at most 10 nM.

For `CN[C@H]1COc2cc(F)c(N3CC(NS(=O)(=O)c4cn(C)cn4)C3)cc2[C@H]1Cc1ccccc1` (relative stereo) [Example 15a, Cis-N-(1-(4-benzyl-7-fluoro-3-(methylamino)chroman-6-yl)azetidin-3-yl)-1-methyl-1H-imidazole-4-sulfonamide], the “human mCl” value in series [1] is “≦5 L/h/Kg”.

As for `CN[C@H]1COc2cc(F)c(N3CC(NS(=O)(=O)CC4CC4)C3)cc2[C@@H]1Cc1ccccc1` (relative stereo) [Example 19b, trans-N-(1-(4-benzyl-7-fluoro-3-(methylamino)chroman-6-yl)azetidin-3-yl)-1-cyclopropylmethanesulfonamide], in series [1], the “human mCl” value is recorded as “≦50 L/h/Kg”.

`CNC1COc2cc(F)c(N3CC(NS(=O)(=O)CC4CC4)C3)cc2C1Cc1ccccc1` (single isomer, unassigned) [Example 19a, Cis-N-(1-(4-benzyl-7-fluoro-3-(methylamino)chroman-6-yl)azetidin-3-yl)-1-cyclopropylmethanesulfonamide]: the Ki on human GlyT1c transporter is at most 10 nM.

As to `CNC1COc2cc(F)c(N3CC(NS(=O)(=O)c4cn(C)nn4)C3)cc2C1Cc1ccccc1` (single isomer, unassigned) [Example 18a, Cis-N-(1-(4-benzyl-7-fluoro-3-(methylamino)chroman-6-yl)azetidin-3-yl)-1-methyl-1H-1,2,3-triazole-4-sulfonamide], the Ki at human GlyT1c transporter is at most 10 nM.

For the compound `CCCS(=O)(=O)NC1CN(c2cc3c(cc2F)OCC(NC)C3Cc2ccccc2)C1` (single isomer, unassigned) [Example 16b, trans-N-(1-(4-benzyl-7-fluoro-3-(methylamino)chroman-6-yl)azetidin-3-yl)propane-1-sulfonamide], the Ki at human GlyT1c transporter was at most 10 nM.

As to `CCS(=O)(=O)NC1CN(c2cc3c(cc2F)OCC(NC)C3Cc2ccccc2)C1` (single isomer, unassigned) [Example 14b, trans-N-(1-(4-benzyl-7-fluoro-3-(methylamino)chroman-6-yl)azetidin-3-yl)ethanesulfonamide], the Ki at human GlyT1c transporter was at most 100 nM.

In the case of `CN[C@H]1COc2cc(F)c(N3CC(NS(=O)(=O)c4cn(C)cn4)C3)cc2[C@@H]1Cc1ccccc1` (relative stereo) [Example 15b, trans-N-(1-(4-benzyl-7-fluoro-3-(methylamino)chroman-6-yl)azetidin-3-yl)-1-methyl-1H-imidazole-4-sulfonamide], the “human mCl” value in series [1] is “≦5 L/h/Kg”.
